Columns and labels:
[1] = tested on: ES-2 ovarian cancer cell line; assay: Cytotoxicity test (SRB assay, cell viability); type: cell-based, human
Description: (§1) The ovarian cancer cell lines used in this study included: ES-2, OV-2008, and SKOV-3 obtained from American Type Culture Collection (ATCC). ES-2 was a clear cell carcinoma cell line with high resistance to platinum chemotherapies. Compared with other types of cancer, the clear cell carcinoma was found having poor prognosis in previous studies. SKOV-3 and OV-2008 were more benign cell lines compared to ES-2. Cell culture medium was McCoy5A culture medium (GIbco, 16600-082) supplemented with 1% antibiotic (Gibco, 15140) and 10% fetal bovine serum (FBS, Sigma, F7524). The cells were incubated in a standard incubator (Shel Lab, Sheldon Manufacturing, USA) at 37° C., 5% CO2.
(§2) All the tested cells were incubated in a medium containing 10% fetal bovine serum. When the cells grew to about eighty percent full, the old culture medium was drained and the cells were washed with PBS (phosphate buffered saline) buffer solution. Then, 10 ml of serum-free culture medium was added. Different drugs were added depending on experimental purposes. The reaction was carried out in a 37° C. constant temperature incubator.
(§3) The ovarian cancer cell lines ES-2, OV-2008, and SKOV-3 were placed in a 96-well culture plate (2000 cells/per well) and incubated overnight in 100 μl of complete DMEM. 50 μl of complete DMEM equivalent sample containing 4-acetyl-antroquinonol B (0.5-50 μM) was added to the different wells of the culture plate. In addition, only 100 μl of complete DMEM was added to the control group. After 2 days of culture, the number of cells in each well was determined by sulforhodamine B (a protein-binding dye). Briefly, the cells were fixed in 10% trichloroacetic acid and stained with 0.4% sulforhodamine B. After stained for 20 minutes, the cells were washed with 1% acetic acid. Thereafter, the cell-bound sulforhodamine B was dissolved in 10 mM Tris base. The absorbance (optical density) was determined at 562 nm by a microtiter plate reader.

[2] = tested on: OV-2008 ovarian cancer cell line; assay: Cytotoxicity test (SRB assay, cell viability); type: cell-based, human; details: 0.5-50 μM, 2 days, FIG. 1B
Description: as §1, §2, §3

[3] = tested on: SKOV-3 ovarian cancer cell line; assay: Cytotoxicity test (SRB assay, cell viability); type: cell-based, human
Description: as §1, §2, §3

LC3BII = assay: Autophagy: immunohistochemical staining and western blot of LC3BII in ES-2 cells; type: cell-based, human
Method: (§4) Western blot is carried out in a standard procedure. The cells were washed twice with PBS and then a cell lysis solution was added. Cell debris was removed by centrifugation to collect protein degradation products. The protein concentrate was quantified by BCA assay kit (Pierce, Thermo Scientific, USA). Each sample was taken an equal amount of protein degradation products to 10% SDS-PAGE electrophoresis then transferred to a PVDF membrane, followed by the addition of anti-autophagy-related genes (Atg-7, Atg-5, and LC3BII) primary antibodies, and an anti-β-actin antibody as a control group. After the target proteins and the primary antibodies reacted overnight, the secondary antibody conjugated to HRP was added. Finally, the signals of the target proteins were determined by a luminescence-based imaging system (UVP, LLC, USA).
Presumably because cisplatin treatment initiated autophagy that enhanced viability. […] After 4-acetyl-antroquinonol B treatment, LC3BII was detected by immunohistochemical staining and western blot, showing that 4-acetyl-antroquinonol B did inhibit the LC3BII expression on autophagosomes (FIG. 2A). Cell autophagy would protect cancer cells from apoptosis caused by chemotherapies. Hydroxychloroquine was a widely used antiparasitic drug. […] Hydroxychloroquine increased the pH inside lysosomes thus made the lysosomes difficult to fuse with mature autophagosomes. The Inhibitory effect on autophagy could also solve the problem of cell autophagy resistance due to chemotherapies in cancer cells.

Atg-7 = assay: Western blot of Atg-7 in treated cells; type: cell-based, human; details: FIG. 2C
Method: as §4

Atg-5 = assay: Western blot of Atg-5 in treated cells; type: cell-based, human; details: FIG. 2C
Method: as §4

ES-2 cell line = assay: Clonogenicity analysis; type: cell-based, human; details: FIG. 2D
Method: In a 6-well plate was seeded 600 cells per well. The culture medium was McCoy5A supplemented with 10% fetal bovine serum.

AKT/mTOR/p70S6K = assay: Western blot of signaling pathway molecules in ES2 cells; type: cell-based, human; details: treatment for 0, 3, 6, and 12 hours, FIG. 3
Method: as §4
The effect of 4-acetyl-arbutin-B on cell proliferation and autophagy of ovarian cancer cell line ES2 was observed, and the expression of autophagy-associated protein LC3BII and signaling pathway molecules AKT/mTOR/p70S6K were detected by western blot.

[4] = tested on: ES-2 ovarian cancer cell line tumors; assay: ES-2 xenograft ovarian cancer animal model, tumor growth; type: in vivo, NOD-SCID mice; details: for cell growth of ovarian cancer cell line ES-2 (tumor growth status), single agent: administration of either agent alone
Method: In this study, tumors were induced by malignant ovarian cancer cell line ES-2 in NOD-SCID mice to establish malignant ovarian cancer animal models. The efficacy of oral and intraperitoneal administration of 4-acetyl-antroquinonol B for ovarian cancer was evaluated. In the ovarian cancer animal models, the malignant ovarian cancer cell line ES-2 was implanted subcutaneously to simulate the symptoms of malignant ovarian cancer. And the same time, the animals were fed with different concentrations of 4-acetyl-antroquinonol B every day for six weeks. The animals were sacrificed each week in the six weeks, respectively. […] In addition, different doses of 4-acetyl-antroquinonol B were administered orally (5 mg/kg and 10 mg/kg), and 1 dose (3 mg/kg) of cisplatin was injected intravenously each week (three doses total) when the tumor size was about 70-250 mm^3. […] Importantly, as for safety of 4-acetyl-antroquinonol B, the body weight changes of each group of mice were monitored weekly. […] Therefore, 4-acetyl-antroquinonol B was a potential adjuvant therapy agent in the treatment of ovarian cancer.
Immunodeficient mice (NOD/SCID mice, about 4-6 weeks old) were purchased from BioLASCO Taiwan Co., Ltd. The test was initiated after a week of domestication.
The selected tumor cells were ES2 malignant ovarian cancer cells. ES-2 cell line was derived from a ovarian cancer cell line which was highly resistant to chemotherapy drugs (e.g. cisplatin) and had poor prognosis. It was an anchorage-dependent cell line with strong transfer capacity. The culture medium was DMEM containing 10% fetal bovine serum (FBS), 1% non-essential amino acids (NEAA), and 1% antibiotics. The cells were incubated in a incubator at 37° C., 5% CO2 and subcultured once every 3 to 4 days.
The cells were treated with 0.05% trypsin-EDTA for 3 to 5 minutes to be suspended. The serum-containing medium was added to neutralize trypsin. The mixture was then centrifuged at 1000 rpm at 20° C. for 5 min. The supernatant was removed and the cell pellet was gently dispersed. The cells were resuspended in a suitable volume of culture medium. After mixing evenly, a little cell fluid was taken and cells were counted with a cytometer. The cells were diluted to a concentration of 10^7 cells per milliliter, and approximately 0.15 ml was dispensed into a 1.5 ml small centrifuge tube.
A solution of 4-acetyl-antroquinonol B was prepared in DMSO (250 mg/ml, DMSO was used as the solvent). After 4-acetyl-antroquinonol B was completely dissolved, the solution was dispensed as stock solution and stored at 4° C. Sterile normal saline solution was added to the stock to make a 500-fold dilution. The mixture was mixed evenly and then injected intraperitoneally. Cisplatin, a current clinical standard chemotherapy drug, was also an injection with a concentration of 50 mg/ml or 5 mg/ml, and both of which were injected intravenously without further dilution.
The day before tumor cells injection, zoletil 50 (10-fold dilution) and rompun 2% were mixed (1:1), and 0.25 ml of the mixture was injected intraperitoneally to each mouse for anesthesia. The mice were exposed to radiation to suppress their immunity after they were asleep. The irradiation dose was 0.75 Gy.
Mice were anesthetized with 2.5% isoflurane. The hair of injection site was shaved. The injection site was disinfected with 75% alcohol and povidone-iodine before injection. ES2 tumor cells were injected via 29G insulin needle. […]

[5] = parameters: species or system NOD-SCID mice; details: mouse, in vivo
Method: In this study, tumors were induced by malignant ovarian cancer cell line ES-2 in NOD-SCID mice to establish malignant ovarian cancer animal models. The efficacy of oral and intraperitoneal administration of 4-acetyl-antroquinonol B for ovarian cancer was evaluated. In the ovarian cancer animal models, the malignant ovarian cancer cell line ES-2 was implanted subcutaneously to simulate the symptoms of malignant ovarian cancer. And the same time, the animals were fed with different concentrations of 4-acetyl-antroquinonol B every day for six weeks. The animals were sacrificed each week in the six weeks, respectively. […] Importantly, as for safety of 4-acetyl-antroquinonol B, the body weight changes of each group of mice were monitored weekly. […]
The ES-2 ovarian cancer cells in logarithmic phase were mixed with serum suspension and 0.1 ml (2×10^6 cells) was inoculated into hind legs of NOD-SCID immunodeficient mice to form tumors. […] Changes in tumor volume and body weight were monitored and recorded every week. […] The longest diameter (a) and the shortest diameter (b) of the tumor on mice were measured. The tumor size=(a*b2)/2, and the tumor growth curve was calculated.

cell autophagy = details: recent phase II clinical study; cited from earlier work

| SMILES | growth of ES2 cells ([1]; 20 uM, time-dependent effect, P<0.05) | response to 4-acetyl-antroquinonol B in cell viability test (cytotoxicity) ([1]; ES-2, 0.5-50 μM, 2 days, FIG. 1B) | cell viability compared with hydroxychloroquine ([1]; ES-2 pretreated with 5 μM cisplatin, same concentration) | response to 4-acetyl-antroquinonol B in cell viability test (cytotoxicity) [2] | inhibitory effect on ovarian cancer cell line [3] | cell autophagy (LC3BII; ES-2 cell line) | autophagosome maturation compared with hydroxychloroquine (LC3BII; ES-2 pretreated with 5 μM cisplatin, FIG. 2B) | LC3BII expression on autophagosomes (LC3BII; immunohistochemical staining and western blot, FIG. 2A) | expression of Atg-7 (Atg-7) | expression of downstream Atg-5 (Atg-5) | cell colony formation efficiency (ES-2 cell line) | expressions of signaling pathway key molecules AKT/mTOR/p70S6K (AKT/mTOR/p70S6K) | cell growth of ovarian cancer cell line ES-2 (tumor growth status), single agent [4] | inhibitory effect on tumor growth, administered alone ([4]; oral 5 mg/kg and 10 mg/kg) | tumor severity versus control group ([4]; oral or intraperitoneal injection, daily for six weeks) | combined inhibitory effect on ovarian cancer with cisplatin and FOLFOX ([4]; ovarian cancer animal model) | safety in the living body [5] | autophagy phenomenon after cisplatin treatment (LC3BII; ES-2 cell line) | body weight after sustained decrease from approximately 26 g [5] | inhibition of cell autophagy (cell autophagy) |
| --- | --- | --- | --- | --- | --- | --- | --- | --- | --- | --- | --- | --- | --- | --- | --- | --- | --- | --- | --- | --- |
| COC1=C(OC)[C@H](OC(C)=O)[C@H](C/C=C(\C)CC/C=C(\C)C[C@H]2C[C@H](C)C(=O)O2)[C@@H](C)C1=O [4-acetyl-antroquinonol B] | significantly inhibited | most pronounced response | significantly lower than that in cells treated with hydroxychloroquine | responsive | high inhibitory effect | significantly inhibited | inhibited more than in cells treated with hydroxychloroquine | did inhibit | reduced | inhibited | decreased | significantly reduced | effectively inhibited | dose-dependent inhibitory effect | significantly lower | synergistic inhibitory effect | extremely high | – | – | – |
| N.N.[Cl][Pt][Cl] [cisplatin, reference compound] | – | – | – | – | – | – | – | – | – | – | – | – | effectively inhibited | – | – | – | – | more significant | about 21 g | – |
| CCN(CCO)CCCC(C)Nc1ccnc2cc(Cl)ccc12 (stereo not drawn) [hydroxychloroquine] | – | – | – | – | – | – | – | – | – | – | – | – | – | – | – | – | – | – | – | could successfully inhibit cell autophagy |

Reference: US20180050012A1, “Method for Inhibiting Growth of Ovarian Cancer Cells” (NEW BELLUS ENTERPRISES CO., LTD., priority 2016, published 2018)
